IC50 data for 34 substances are collected here from patent US8653096B2, “Chemokine receptor antagonists and methods of use thereof” (Millennium Pharmaceuticals, Inc., priority 2001, dated 2014).

Bounds are passed on as bounds.

The assay concerns the target T1, RANTES/MIP-1α chemokine receptor (CCR1) in THP-1 cell membranes (Homo sapiens, UniProt P32246).
T1 construct: Membranes were prepared from THP-1 cells (ATCC #TIB202); host or cells: THP-1 cells (membrane preparation)
T1 sequence (P32246 1-355): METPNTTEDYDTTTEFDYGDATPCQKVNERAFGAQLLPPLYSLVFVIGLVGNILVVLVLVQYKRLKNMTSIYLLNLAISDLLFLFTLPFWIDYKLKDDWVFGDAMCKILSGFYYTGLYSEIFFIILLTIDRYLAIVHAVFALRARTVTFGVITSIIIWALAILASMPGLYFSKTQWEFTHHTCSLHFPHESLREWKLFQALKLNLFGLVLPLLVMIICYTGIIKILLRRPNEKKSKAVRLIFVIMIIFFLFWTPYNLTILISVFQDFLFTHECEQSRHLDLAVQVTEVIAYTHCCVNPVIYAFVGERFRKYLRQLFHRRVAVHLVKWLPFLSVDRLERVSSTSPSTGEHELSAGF
Description: Receptor binding assay: 125I-RANTES or 125I-MIP-1α binding to THP-1 cell membranes. As to conditions: inhibitor concentration required for 50% inhibition of specific binding; 125I-RANTES or 125I-MIP-1α as ligand, THP-1 cell membranes; read-out: IC50. How it is done:
Membranes were prepared from THP-1 cells (ATCC #TIB202). Cells were harvested by centrifugation, washed twice with PBS (phosphate-buffered saline), and the cell pellets were frozen at −70 to −85° C. The frozen pellet was thawed in ice-cold lysis buffer consisting of 5 mM HEPES (N-2-hydroxyethylpiperazine-N′-2-ethane-sulfonic acid) pH 7.5, 2 mM EDTA (ethylenediaminetetraacetic acid), 5 μg/ml each aprotinin, leupeptin, and chymostatin (protease inhibitors), and 100 μg/ml PMSF (phenyl methane sulfonyl fluoride—also a protease inhibitor), at a concentration of 1 to 5×10^7 cells/ml. This procedure results in cell lysis. The suspension was mixed well to resuspend all of the frozen cell pellet. Nuclei and cell debris were removed by centrifugation of 400×g for 10 minutes at 4° C. The supernatant was transferred to a fresh tube and the membrane fragments were collected by centrifugation at 25,000×g for 30 minutes at 4° C. The supernatant was aspirated and the pellet was resuspended in freezing buffer consisting of 10 mM HEPES pH 7.5, 300 mM sucrose, 1 μg/ml each aprotinin, leupeptin, and chymostatin, and 10 μg/ml PMSF (approximately 0.1 ml per each 10^8 cells). All clumps were resolved using a minihomogenizer, and the total protein concentration was determined using a protein assay kit (Bio-Rad, Hercules, Calif., cat #500-0002). The membrane solution was then aliquoted and frozen at −70 to −85° C. until needed.
Binding Assays utilized the membranes described above. […] The binding reactions were performed in 60 to 100 μl of a binding buffer consisting of 10 mM HEPES pH 7.2, 1 mM CaCl2, 5 mM MgCl2, and 0.5% BSA (bovine serum albumin), for 60 min at room temperature. The binding reactions were terminated by harvesting the membranes by rapid filtration through glass fiber filters (GF/B or GF/C, Packard) which were presoaked in 0.3% polyethyleneimine. The filters were rinsed with approximately 600 μl of binding buffer containing 0.5 M NaCl, dried, and the amount of bound radioactivity was determined by scintillation counting in a Topcount beta-plate counter.
Specific binding is defined as the total binding minus the non-specific binding; non-specific binding is the amount of cpm still detected in the presence of excess unlabeled Rantes or MIP-1α.
For the substance “4-(4-Chlorophenyl)-1-[3-(5,11-dihydro-7-methoxy[1]benzoxepino[2,3-b]pyridin-5-ylidene)propyl]-1,2,3,6-tetrahydropyridine [Example 194]”, the IC50 – broadly, the concentration at which inhibition is half-maximal – was below 1 µM. As for “4-(4-Chlorophenyl)-1-[3-(5,11-dihydro-7-methoxy[1]benzoxepino[2,3-b]pyridin-5-ylidene)propyl]piperidin-4-ol [Example 45]”, the figure is below 1 µM; as for “4-(4-Chlorophenyl)-1-[3-(5,11-dihydro-7-methoxy[1]benzoxepino[2,3-b]pyridin-5-ylidene)propyl]piperidine [Example 65]”, below 1 µM; as for “4-(4-Chlorophenyl)-1-[3-(5,11-dihydro-7-methylaminocarbonyl[1]benzoxepino[2,3-b]pyridin-5-ylidene)propyl]piperidin-4-ol [Example 268]”, below 1 µM. As to “4-(4-Chlorophenyl)-1-[3-(5,11-dihydro-7-methylaminocarbonylmethyloxy[1]benzoxepino[2,3-b]pyridin-5-ylidene)propyl]piperidin-4-ol [Example 182]”, the concentration for half-maximal inhibition (IC50) was below 1 µM. As for “4-(4-Chlorophenyl)-1-[3-(5,11-dihydro-7-morpholinocarbonylmethyloxy[1]benzoxepino[2,3-b]pyridin-5-ylidene)propyl]piperidin-4-ol [Example 135]”, the figure is below 1 µM; as for “4-(4-Chlorophenyl)-1-[3-(5,11-dihydro-7-phenyl[1]benzoxepino[2,3-b]pyridin-5-ylidene)propyl]piperidin-4-ol [Example 291]”, below 1 µM; as for “4-(4-Chlorophenyl)-1-[3-(5,11-dihydro-7-propargyloxy[1]benzoxepino [2,3-b]pyridin-5-ylidene)propyl]piperidin-4-ol [Example 173]”, below 1 µM. For the substance “4-(4-Chlorophenyl)-1-[3-(5,11-dihydro-7-propoxy[1]benzoxepino[2,3-b]pyridin-5-ylidene)propyl]piperidin-4-ol [Example 128]”, the IC50 was below 1 µM. Then “4-(4-Chlorophenyl)-1-[3-(5,11-dihydro-8-methoxy[1]benzoxepino[2,3-b]pyridin-5-ylidene)propyl]piperidin-4-ol [Example 114]”, with below 1 µM.

As for “4-(4-Chlorophenyl)-1-[3-(5,11-dihydro-9-methoxy[1]benzoxepino[2,3-b]pyridin-5-ylidene)propyl]piperidin-4-ol [Example 166]”, the half-maximal inhibitory concentration (IC50) is below 10 µM.

For the substance “4-(4-Chlorophenyl)-1-[3-(5,11-dihydro[1]benzothiepino[2,3-b]pyridin-5-ylidene)propyl]piperidin-4-ol [Example 111]”, the half-maximal inhibitory concentration (IC50) is below 1 µM. As to “4-(4-Chlorophenyl)-1-[3-(7-(2-ethoxycarboxy)ethyl-5,11-dihydro[1]benzoxepino[2,3-b]pyridin-5-ylidene)propyl]piperidin-4-ol [Example 288]”, the IC50 is below 1 µM.

With “4-(4-Chlorophenyl)-1-[3-(7-(2-furyl)-5,11-dihydro[1]benzoxepino[2,3-b]pyridin-5-ylidene)propyl]piperidin-4-ol [Example 292]”, the IC50 is below 1 µM.

Regarding “4-(4-Chlorophenyl)-1-[3-(7-carboxymethyl-5,11-dihydro[1]benzoxepino[2,3-b]pyridin-5-ylidene)propyl]piperidin-4-ol [Example 120]”, the IC50 is below 1 µM. As for “4-(4-Chlorophenyl)-1-[3-(7-cyanomethyloxy-5,11-dihydro[1]benzoxepino[2,3-b]pyridin-5-ylidene)propyl]piperidin-4-ol [Example 49]”, the figure is below 1 µM; as for “4-(4-Chlorophenyl)-1-[3-(7-cyclopentoxy-5,11-dihydro[1]benzoxepino[2,3-b]pyridin-5-ylidene)propyl]piperidin-4-ol [Example 174]”, below 1 µM; as for “4-(4-Chlorophenyl)-1-[3-(7-cyclopropylmethyloxy-5,11-dihydro [1]benzoxepino[2,3-b]pyridin-5-ylidene)propyl]piperidin-4-ol [Example 130]”, below 1 µM.

Consider “4-(4-Chlorophenyl)-1-[3-(7-diethylaminocarbonyl-5,11-dihydro[1]benzoxepino[2,3-b]pyridin-5-ylidene)propyl]piperidin-4-ol [Example 270]”, for which the IC50 was below 1 µM. As for “4-(4-Chlorophenyl)-1-[3-(7-diethylaminocarbonylmethyloxy-5,11-dihydro[1]benzoxepino[2,3-b]pyridin-5-ylidene)propyl]piperidin-4-ol [Example 263]”, the figure is below 1 µM. As for “4-(4-Chlorophenyl)-1-[3-(7-dimethylaminocarbonyl-5,11-dihydro[1]benzoxepino[2,3-b]pyridin-5-ylidene)propyl]piperidin-4-ol [Example 198]”, the figure is below 1 µM. In the case of “4-(4-Chlorophenyl)-1-[3-(7-dimethylaminocarbonylmethyl-5,11-dihydro[1]benzoxepino[2,3-b]pyridin-5-ylidene)propyl]piperidin-4-ol [Example 122]”, the IC50 was below 1 µM. Then “4-(4-Cyanophenyl)-1-[3-(5,11-dihydro-7-methoxy[1]benzoxepino[2,3-b]pyridin-5-ylidene)propyl]piperidin-4-ol [Example 141]”, with below 1 µM; and “4-(5-Chloro-2-keto-1-benzimidazolinyl)-1-[3-(5,11-dihydro-7-methoxy[1]benzoxepino[2,3-b]pyridin-5-ylidene)propyl]piperidine [Example 85]”, with below 1 µM; and “4-(5-Chloropyridin-2-yl)-1-[3-(5,11-dihydro-7-methoxy[1]benzoxepino[2,3-b]pyridin-5-ylidene)propyl]piperidin-4-ol [Example 83]”, with below 1000 µM. Turning to “4-(7-Chloro-1,2-benzisoxazol-3-yl)-1-[3-(5,11-dihydro-7-methoxy[1]benzoxepino[2,3-b]pyridin-5-ylidene)propyl]piperidine [Example 185]”, the IC50 was below 1000 µM. As for “4-(7-Chloroindol-3-yl)-1-[3-(5,11-dihydro-7-methoxy[1]benzoxepino[2,3-b]pyridin-5-ylidene)propyl]-1,2,3,6-tetrahydropyridine [Example 195]”, the figure is below 10 µM. Consider “4-(7-Chloroindol-3-yl)-1-[3-(5,11-dihydro-7-methoxy[1]benzoxepino[2,3-b]pyridin-5-ylidene)propyl]piperidine [Example 186]”, for which the IC50 is below 1 µM. As for “4-(p-Chloroanilino)-1-[3-(5,11-dihydro-7-methoxy[1]benzoxepino[2,3-b]pyridin-5-ylidene)propyl]piperidine [Example 86]”, the figure is above 10 µM; as for “4-Azido-4-(4-chlorophenyl)-1-[3-(5,11-dihydro-7-methoxy[1]benzoxepino[2,3-b]pyridin-5-ylidene)propyl]piperidine [Example 187]”, below 1 µM. Regarding “4-Benzyl-1-[3-(5,11-dihydro-7-methoxy[1]benzoxepino[2,3-b]pyridin-5-ylidene)propyl]piperidin-4-ol [Example 62]”, the IC50 is below 10 µM. For “4-Cyano-1-[3-(5,11-dihydro-7-methoxy[1]benzoxepino[2,3-b]pyridin-5-ylidene)propyl]-4-phenylpiperidine [Example 63]”, the IC50 was below 10 µM. Regarding “5-Chloro-1′-[3-(5,11-dihydro-7-(2-methoxyethyl)oxy[1]benzoxepino[2,3-b]pyridin-5-ylidene)propyl]spiro[isobenzofuran-1(3H), 4′-piperidine] [Example 197]”, the IC50 was below 1 µM. As for “5-Chloro-1′-[3-(5,11-dihydro-7-methoxy[1]benzoxepino[2,3-b]pyridin-5-ylidene)propyl]spiro[isobenzofuran-1(3H), 4′-piperidine] [Example 91]”, the figure is below 1 µM.
